This assay concerns the target T1, human ether-a-go-go-related gene (hERG) potassium channel (Homo sapiens, UniProt Q12809).
T1 construct: gene KCNH2; WT hERG stably expressed in HEK293 cells
The assay can be described thus: whole-cell patch clamp of hERG tail current, immediate perfusion; acute block lost in Y652A and F656V mutants. The assay is classed as cell-based. In general terms: Patch clamp records ionic current or voltage across a cell membrane.

T1 sequence (Q12809 whole entry): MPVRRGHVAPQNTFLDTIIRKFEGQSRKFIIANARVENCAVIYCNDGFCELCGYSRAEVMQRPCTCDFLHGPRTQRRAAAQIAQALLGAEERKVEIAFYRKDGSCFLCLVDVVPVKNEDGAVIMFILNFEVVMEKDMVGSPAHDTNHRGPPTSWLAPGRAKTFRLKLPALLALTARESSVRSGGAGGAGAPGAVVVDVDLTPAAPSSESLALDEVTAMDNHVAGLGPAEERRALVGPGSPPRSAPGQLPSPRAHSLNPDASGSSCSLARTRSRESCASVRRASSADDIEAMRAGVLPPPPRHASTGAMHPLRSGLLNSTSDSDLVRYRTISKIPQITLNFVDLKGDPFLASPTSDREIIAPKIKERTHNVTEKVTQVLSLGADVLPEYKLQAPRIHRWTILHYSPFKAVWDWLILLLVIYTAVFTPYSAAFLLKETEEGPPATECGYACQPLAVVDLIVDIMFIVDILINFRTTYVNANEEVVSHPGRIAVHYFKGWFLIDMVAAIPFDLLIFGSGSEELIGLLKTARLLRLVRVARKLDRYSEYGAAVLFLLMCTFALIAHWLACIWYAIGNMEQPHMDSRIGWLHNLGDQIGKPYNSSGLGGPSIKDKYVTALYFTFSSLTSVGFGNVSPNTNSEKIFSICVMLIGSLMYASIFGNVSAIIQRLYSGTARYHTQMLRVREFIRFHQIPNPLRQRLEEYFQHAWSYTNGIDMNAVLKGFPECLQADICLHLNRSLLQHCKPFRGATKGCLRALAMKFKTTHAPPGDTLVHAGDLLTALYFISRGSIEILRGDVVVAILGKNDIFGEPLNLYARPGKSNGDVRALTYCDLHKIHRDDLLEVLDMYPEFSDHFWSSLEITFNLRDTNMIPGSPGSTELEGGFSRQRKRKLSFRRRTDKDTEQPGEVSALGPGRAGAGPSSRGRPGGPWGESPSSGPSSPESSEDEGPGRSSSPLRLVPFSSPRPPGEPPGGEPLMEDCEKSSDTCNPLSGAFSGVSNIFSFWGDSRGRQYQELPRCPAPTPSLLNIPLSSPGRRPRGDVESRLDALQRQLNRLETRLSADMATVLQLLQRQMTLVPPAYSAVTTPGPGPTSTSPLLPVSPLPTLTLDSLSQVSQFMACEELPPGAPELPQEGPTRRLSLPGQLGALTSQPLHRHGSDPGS

By IC50 is commonly meant the concentration needed to halve the response being measured. A higher IC50 goes with lower potency. For `COc1ccc2c(c1OC)CN1CCc3cc4c(cc3C1=C2)OCO4` [DHB, dihydroberberine], it took 10.5 µM to reach half-maximal inhibition (IC50).
